Converted amounts (≈) assume the structure as drawn.
Key:
GAS NZ131 = assay: MBC determination; type: cell-based, group A Streptococcus; details: Streptococcus, 3-log reduction of viable bacteria after 24 hour incubation at 37° C. in half strength MHB in PBS
Experimental: (§1) To determine MBC, bacteria were cultured in TSB (Staphylococcus), THB (Streptococcus) or Nutrient broth (P. aeruginosa and E. coli) by reaching exponential phase (OD600=0.5-0.8). […] After incubation, the number of viable bacteria was measured by counting CFU after spreading 10-fold serial dilutions of bacteria on suitable agar plates. MBC was determined as a 3-log reduction (99.9%) of viable bacteria after 24 hour incubation.
(§2) Antimicrobial activity of 6-HAP in vitro. To examine the specificity of 6-HAP for various bacteria, minimal bactericidal concentrations (MBCs) were determined according to dose-dependent killing curves at 24 hrs of incubation in vitro (Table 1). 6-HAP killed or suppressed growth of several major skin pathogens including GAS (NZ131), group B Streptococcus (GBS) (DK23), methicillin-sensitive S. aureus (ATCC35556), methicillin-resistant S. aureus (MRSA) strains (USA300 and Sanger252), Pseudomonas aeruginosa (P. aeruginosa) (ATCC14213) in vitro. […] S. epidermidis (ATCC12228) was also resistant to 6-HAP.

MRSA Sanger252 = assay: MBC determination; type: cell-based, methicillin-resistant S. aureus; details: Staphylococcus aureus, 3-log reduction, 24 hour, 37° C., half strength MHB in PBS
Experimental: as §1, §2

MRSA USA300 = assay: MBC determination; type: cell-based, methicillin-resistant S. aureus; details: Staphylococcus aureus, 3-log reduction, 24 hour, 37° C., half strength MHB in PBS
Experimental: as §1, §2

P. acnes ATCC6919 = assay: MBC determination; type: cell-based, Propionibacterium acnes; details: Cutibacterium acnes, 3-log reduction, 24 hour, 37° C., half strength MHB in PBS
B16F10 melanoma [1] = assay: Cell proliferation assay (BrdU incorporation); type: cell-based, mouse; details: B16F10, 4-hr incubation
Experimental: (§3) Proliferative activity of tumor cell line, L5178 (a), YAC-1 lymphoma (b), B16F10 melanoma (c) after 4-hr incubation in suitable media containing indicated concentrations of 6-HAP or mitomycin C (10 μg/mL). Proliferative activity of cells was determined by monitoring BrdU incorporation. The data represent mean±SE of four individual experiments.
(§4) Cell culture and cell proliferation assay. B16F10 mouse melanoma, Pam212, L5178 and YAC-1 mouse […] cell lines were obtained from American Type Culture Collection. Pam212, L5178 and YAC-1 cell lines were maintained in RPMI-1640 supplemented with sodium pyruvate (1 mM), nonessential amino acids (0.1 mM), penicillin (100 unit/mL), streptomycin (100 μg/mL) and 10% heat-inactivated fetal bovine serum (FBS) or horse serum at 37° C. under atmosphere of 5% (v/v) CO2 in air. B16F10 cell line was maintained in DMEM supplemented with penicillin (100 unit/mL), streptomycin (100 μg/mL) and 10% heat-inactivated FBS. NHEKs were obtained from Invitrogen (Life technologies, Grand Island, NY) and maintained in EpiLife medium (Life technologies) supplemented with 60 μM Calcium, epidermal growth factors, penicillin and streptomycin. After 4-hr (tumor cell lines) or 24-hr (NHEK) incubation with 6-HAP, proliferative activity of cells was colorimetrically determined by monitoring BrdU incorporation with Cell Proliferation kit according to the manual (Roche).

L5178 lymphoma = assay: Cell proliferation assay (BrdU incorporation); type: cell-based, mouse; details: L5178, 4-hr incubation
Experimental: as §3, §4

YAC-1 lymphoma = assay: Cell proliferation assay (BrdU incorporation); type: cell-based, mouse; details: YAC-1, 4-hr incubation
Experimental: as §3, §4

B16F10 melanoma [2] = assay: In vivo tumor growth assay; parameters: species or system C57BL6 mice; details: intravenous 20 mg/kg every 48 hrs for 2 weeks
Experimental: (a-c) Effect of a single intravascular injection of 6-HAP on skin infection by GAS. The size of the infected lesion was measured by Image-J software (a). Representative images of infected skin (arrow) of mouse treated with 6-HAP or vehicle at Day-1 and Day-3 post infection are shown in (b). Infected skin was removed 24 and 72 hrs after bacterial injection and homogenized in PBS (c). CFUs were enumerated by plating serial dilutions of the homogenate on an agar plate. The data represent mean±SE of eight individual experiments (*P<0.05 and **P<0.01 by Student's t-test vs vehicle control). (d-e) Effect of repeated intravascular administrations with 6-HAP on growth of melanoma in mice. The data represent mean±SE of 10 individual experiments (*P<0.05, **P<0.01 and ***P<0.001 by Student's t-test vs vehicle control) (d). Representative images of tumor (broken line) in mouse treated with 6-HAP or vehicle at Day-9 and Day-13 are shown in (e).
In vivo tumor growth assay. B16F10 were suspended in sterile PBS. Shaved mouse dorsal skin was intradermally injected with 3×10^5 cells/50 μL. The C57BL6 mice were subsequently injected with 6-HAP dissolved in 2.5% DMSO/0.9% NaCl solution (40 mg/mL) at the dose of 20 mg/kg mouse via intravascular route every 48 hrs for 2 weeks. […] Tumor size was measured as the two perpendicular diameters with a caliper and volume was estimated by a formula, width^2×length/2. […]

`ONc1ncnc2nc[nH]c12` [6-HAP, 6-N-hydroxyaminopurine] was tested, and the MBC (GAS NZ131) was 0.156 µg/mL (≈ 1.03 µM), the MBC (MRSA Sanger252) was 0.781 µg/mL (≈ 5.17 µM) and the MBC (MRSA USA300) was 6.25 µg/mL (≈ 41.4 µM). For the same compound, the MBC (P. acnes ATCC6919) was > 100 µg/mL, the BrdU incorporation (B16F10 melanoma [1]) was “inhibited” and the BrdU incorporation (L5178 lymphoma) was “inhibited”. For the same compound, the BrdU incorporation (YAC-1 lymphoma) was “inhibited” and the “tumor size suppression compared to vehicle” value (B16F10 melanoma [2]) was > 60%.

— US12427151B2, “Compositions and method of treating cancer” (The Regents of the University of California, priority 2017, dated 2025)
